In the test the test system is SK-MEL-5 viability, ATP luminescence (CellTiter-Glo), 24 h. The test can be described thus: cytotoxicity in parental SK-MEL-5 melanoma cells – cell-based, CellTiter-Glo, cherry-picked, set 3, orthogonal assay for MITF inhibitor project, dose response (AID 493240). Background: Cellular ATP, detected with luciferase, serves as a proxy for viable cell number.

The text below walks through data of PubChem BioAssay AID493240 (Broad Institute, 2011).

Molecules are shown by their SMILES. A value given as a limit tells only on which side of the number the result lay.

Regarding `CC1CCC(C(C)C)C(OC(=O)Cn2c(-c3ccccc3)[n+](C)c3ccccc32)C1` (configuration not stated), the AC50 (in general, the midpoint of the concentration-response curve, whichever way the signal moves) was 5.45 µM.
For the compound `CCN1c2ccccc2NC2N=C(OC)C(c3ccccc3)C21` (configuration not stated), the half-maximal activity concentration (AC50) is 14 µM.
In the case of `Nc1c(N(CCC2=CCCCC2)C(=O)COc2ccc(F)cc2)c(=O)[nH]c(=O)n1Cc1ccccc1` it was 10.9 µM.
`CN(C)CCCN(C(=O)CCc1ccccc1)c1nc2ccc(Br)cc2s1`: the half-maximal activity concentration (AC50) was 16.5 µM.
In the case of `O=C(Nc1ccc(N2CCCC2)c(Cl)c1)c1ccc([N+](=O)[O-])o1` it was 29.9 µM.
In the case of `O=C1/C(=N\S(=O)(=O)c2cccs2)C([n+]2ccccc2)=C([O-])c2ccccc21` it was 5.27 µM; in that of `O=C(CNc1cccc2ccccc12)N/N=C/c1ccc([N+](=O)[O-])o1`, 19.9 µM; in that of `O=C(CCl)Nc1ccc(Sc2ccc(NC(=O)CCl)cc2)cc1`, 23.6 µM.
In the case of `CS(=O)(=O)c1ncc(Cl)c(C(=O)Nc2ccc3ccccc3c2)n1` it was 18.3 µM; in that of `Cc1ccccc1-c1nc(-c2ccccn2)no1`, 20.7 µM.
For `CCN1CCN(c2ccc(S(=O)(=O)N3CCCCC3)cc2NC(=O)/C=C/c2cccc(OC)c2OC)CC1`, the AC50 is 24.7 µM.
In the case of `C=CCNC1=C(Cl)C(=O)c2ccccc2C1=O` it was 7.68 µM; in that of `CC1CCC(C(C)C)C(OC(=O)Cn2c(-c3ccc(Br)cc3)[n+](C)c3ccccc32)C1` (configuration not stated), 15.2 µM.
Regarding `CCOC(=O)CCc1ccc(NC(=O)/C=C/c2ccc([N+](=O)[O-])o2)cc1`, the half-maximal activity concentration (AC50) was 28.4 µM.
In the case of `Cc1oc(-c2ccc(Cl)cc2)nc1CN1CCC(C(=O)NCCCN2CCCC(C)C2)CC1` (configuration not stated) it was 17.1 µM; in that of `Cc1ccc(C(=O)N/C(=C\c2ccc(-c3ccc(Br)cc3)o2)C(=O)NCCCN(C)C)cc1`, 17.1 µM.
For the compound `O=C(N/N=C/c1ccc(O)c2ncccc12)c1cccc(Br)c1`, the AC50 was 25.7 µM.
In the case of `Cc1[nH]c2ccccc2c1C(=O)CCl` it was 22.1 µM; in that of `CC(=O)N(C)C1=C(N2CCOCC2)C(=O)c2ccccc2C1=O`, 7.92 µM.
In the case of `CCN(CC)CCNC(=O)c1ccc(NC(=O)c2cn(-c3ccccc3)nc2-c2cccs2)cc1` it was 19.9 µM.
On to `CC(=O)c1c(C)oc2c1C(=O)c1ccccc1C2=O`, for which the AC50 is 7.62 µM.
In the case of `COc1cc(SC)ccc1C(=O)Nc1nc(C)cs1` it was 28.4 µM; in that of `O=c1c(Cl)c2oc3ccccc3nc-2c2ccccc12`, 5.67 µM; in that of `O=C(CCl)N(c1ccccc1)C1CCCCC1`, 32.3 µM.
In the case of `Cn1c(SCC(=O)N/N=C/c2ccc([N+](=O)[O-])s2)nnc1-c1ccccc1` it was 21.5 µM; in that of `O=C(N/N=C/c1ccc([N+](=O)[O-])s1)C(O)c1ccccc1` (configuration not stated), 35.1 µM; in that of `Cc1ccc(C(C)C)c(OCc2nn(CC(=O)c3ccc(OC(F)F)cc3)c3[n+]2CCCCC3)c1`, 20.2 µM.
Take `CC(C)(C)c1ccc(Cn2c(=N)n(CC(O)c3ccco3)c3ccccc32)cc1` (configuration not stated): the half-maximal activity concentration (AC50) was 19.9 µM.
In the case of `N=c1n(CC(=O)c2ccc(Br)s2)c2ccccc2n1Cc1ccccc1` it was 20 µM.
For `CCOc1cc(/C=N/N=C(N)N)ccc1OCc1ccc(Cl)cc1`, the AC50 was 19.2 µM.
In the case of `O=[N+]([O-])c1cccc2c(N3CCCC3)ccnc12` it was 15.3 µM; in that of `O=C(/C=C/c1cccc([N+](=O)[O-])c1)c1cccs1`, 27.8 µM; in that of `Cc1c(CCOC(=O)c2ccc(Cl)cc2Cl)sc[n+]1CC(=O)c1ccc(Br)cc1`, 28.8 µM.
In the case of `O=C(N/N=C/c1ccc(F)cc1)c1c(O)c2ccccc2[nH]c1=O` it was 26.9 µM.
Consider `COc1ccc(C(=O)/C=C/C(=O)N(CC(=O)NC2CCCCC2)Cc2cccs2)c(O)c1`, for which the AC50 is 20.5 µM.
Turning to `Cc1ccc(NC(=O)c2ccc([N+](=O)[O-])s2)cc1S(=O)(=O)N1CCOCC1`, the AC50 was 16.2 µM.
Turning to `COc1ccccc1NC(=O)c1nc(S(=O)(=O)Cc2ccccc2)ncc1Cl`, the AC50 is 29.4 µM.
In the case of `CCN1CCN(c2ccc(NC(=O)c3ccc([N+](=O)[O-])o3)cc2Cl)CC1` it was 24.8 µM; in that of `CN1CCN(C2=C(NS(=O)(=O)c3ccccc3)C(=O)c3ccccc3C2=O)CC1`, 16.9 µM.
Regarding `Cc1cc(/C=C2\Sc3ccccc3N2C)cc(C)[n+]1CC1CCCO1` (configuration not stated), the concentration at half-maximal activity (AC50) is 10 µM.
In the case of `O=C1/C(=C/c2ccccc2[N+](=O)[O-])COc2ccccc21` it was 34.1 µM.
On to `CCN1CCCC1CNC(=O)c1ccc2c(c1)NC(=O)/C(=C\c1ccc(C)cc1)S2` (configuration not stated), for which the concentration at half-maximal activity (AC50) is 18.7 µM.
As for `Cc1cc(NC(=O)c2cncc(Br)c2)ccc1NC(=O)c1cc2ccccc2o1`, the half-maximal activity concentration (AC50) was 21.3 µM.
In the case of `CCOC(=O)c1ccc(NC(=O)c2ccc(C)c(S(=O)(=O)N3CCOCC3)c2)cc1` it was 17.5 µM; in that of `CCCCCCCNC(=O)C1(CC2CC(c3ccc(Cl)cc3)=NO2)CCNCC1` (configuration not stated), 18.2 µM.
In the case of `O=C(COc1ccccc1)N/N=C/c1ccc([N+](=O)[O-])o1` it was 22.9 µM.
In the case of `CS(=O)(=O)c1ccc(C(=O)OCC(=O)NCc2cccs2)cc1[N+](=O)[O-]` it was 29.7 µM; in that of `CC[n+]1c(/C=C/N(C)c2ccccc2)sc2ccc(Cl)cc21`, 19.8 µM; in that of `COc1cccc2c1C(=O)C=C(C)C2=O`, 18.8 µM.
Regarding `N=c1n(CC(=O)c2ccc(Br)cc2)c2ccccc2n1Cc1ccccc1`, the AC50 is 18.1 µM.
As for `COc1ccc(Br)cc1/C=C/C(=O)c1ccc(NC(C)=O)cc1`, the half-maximal activity concentration (AC50) is 26.7 µM.
For the compound `Cc1ccc(-n2cc(CNCCCn3cccn3)c(-c3cccc(C)c3)n2)cc1`, the AC50 is 20.1 µM.
For `CCOC(=O)c1ccc2c(c1)n(CC)c(/C=C/N(C)c1ccccc1)[n+]2CC`, the concentration at half-maximal activity (AC50) was 13.3 µM.
In the case of `O=C(C#Cc1ccccc1)c1cccc([N+](=O)[O-])c1`, the half-maximal activity concentration (AC50) was 26.2 µM.
In the case of `CC1(C)Cc2ccccc2C2=NNC(=O)C2=N1` it was 8.54 µM; in that of `CCOc1ccc(-n2c(-c3ccc(Br)cc3)c[n+]3c2CCCCC3)cc1`, 20.5 µM.
In the case of `COc1cc(NC(=O)c2[nH]cnc2C(N)=O)cc(C(=O)Nc2cccc(C(F)(F)F)c2)c1` it was 18.2 µM; in that of `CC(C)(C)c1ccc(OCCn2ccccc2=O)cc1`, 28.7 µM; in that of `CCN(Cc1ccccc1)c1ccc(/C=N/N=C(N)N)cc1`, 17.9 µM.
In the case of `O=C1Nc2cc(C(=O)NCCN3CCCCCC3)ccc2S/C1=C\c1ccccc1` it was 19.2 µM.
As to `Cc1ccc(NC(=O)CCl)cc1S(=O)(=O)N1CCCCCC1`, the AC50 is 28.3 µM.
Take `CCN(CC)CCNC(=O)c1c(C)n(-c2ccccc2)c2cc(Br)c(OC)cc12`: the AC50 is 19.8 µM.
Regarding `COC(=O)c1c(NC(=O)c2nc3ccccc3s2)sc2c1CC(C)(C)NC2(C)C`, the concentration at half-maximal activity (AC50) was 22.1 µM.
For `CC1CC2(C)Oc3ccccc3CC2C(C)C1CNCCCN(C)C` (configuration not stated), the AC50 was 16.2 µM.
Take `COc1ccc2nc(C)cc(NCc3cccc(C(F)(F)F)c3)c2c1`: the AC50 was 27.9 µM.
Turning to `Nc1c(N(CCC2=CCCCC2)C(=O)COc2ccc([N+](=O)[O-])cc2)c(=O)[nH]c(=O)n1Cc1ccccc1`, the AC50 was 33.7 µM.
In the case of `CN(C)CCCNC(=O)/C(=C\c1ccc(-c2ccc(Br)cc2)o1)NC(=O)c1ccccc1` it was 16.7 µM.
In the case of `CCOC(=O)Cn1c(=NC(=O)c2ccc([N+](=O)[O-])s2)sc2ccccc21` it was 6.03 µM.
As for `COc1cccc(/C=N/Nc2ccc(C(=O)O)cc2)c1O`, the AC50 is 19.9 µM.
In the case of `N=c1n(Cc2ccc(Cl)cc2)c2ccccc2n1CC(O)COc1ccccc1` (configuration not stated) it was 19.1 µM; in that of `Cc1ccc(C(=O)N/N=C/c2ccc([N+](=O)[O-])s2)cc1`, 26.7 µM; in that of `O=C(Nc1ccc(S(=O)(=O)NC2=NCCCCC2)cc1)c1ccc([N+](=O)[O-])s1`, 23 µM.
In the case of `Cc1c(OCC(=O)NC2CC(C)(C)NC(C)(C)C2)ccc2c1oc(=O)c1ccccc12` it was 23.2 µM; in that of `Cc1nc2ccccc2n1/N=C/c1ccc([N+](=O)[O-])s1`, 7.45 µM.
In the case of `CC1CCC/C=C/C(=O)c2c(O)cc(O)cc2CC(=O)O1` (configuration not stated) it was 31.7 µM; in that of `COc1ccccc1CNCC(O)Cn1c2ccccc2c2ccccc21` (configuration not stated), 19 µM.
Turning to `CCn1c(/C=C/N(C)c2ccccc2)[n+](CC)c2ccc(Cl)cc21`, the AC50 is 13.9 µM.
In the case of `CC(=O)Nc1ccc(S(=O)(=O)NC2=C(N3CCN(C)CC3)C(=O)c3ccccc3C2=O)cc1`, the concentration at half-maximal activity (AC50) is 22.8 µM.
In the case of `COc1ccc2[nH]cc(C(=O)CCl)c2c1`, the AC50 is 17.4 µM.
In the case of `O=C(Nc1ccccc1)NN(C(=O)CCl)c1ccccc1` it was 28.7 µM.
In the case of `O=C1c2cc(F)ccc2-n2c1nc1ccccc1c2=O` it was 5.5 µM; in that of `Cc1ccc(-c2nc(C(=O)NCCCN(C)C)cc3c2[nH]c2ccccc23)cc1`, 18.8 µM; in that of `CC1CCC(C(C)C)C(OC(=O)Cn2c(-c3ccc(F)cc3)[n+](C)c3ccccc32)C1` (configuration not stated), 8.02 µM.
Regarding `C#CC(=O)N(c1ccc(OC)c(OC)c1)C(C(=O)NC1CCCC1)c1cccs1` (configuration not stated), the AC50 was 22.1 µM.
Turning to `Cc1cc(C)c2nc(N3CCC(C(=O)NCCCN4CC(C)CC(C)C4)CC3)sc2c1` (configuration not stated), the AC50 was 18.3 µM.
Turning to `Cc1cccc(NC2=C(NC(=O)c3ccccc3)C(=O)c3ccccc3C2=O)c1`, the concentration at half-maximal activity (AC50) was 19.7 µM.
In the case of `O=C(Nc1ccccn1)c1ccc(Br)s1`, the AC50 was 2.08 µM.
In the case of `O=[N+]([O-])c1ccc(S(=O)(=O)CC(CN2CCCCC2)N2CCCCC2)cc1` (configuration not stated) it was 29.8 µM; in that of `Cc1ccc(-n2cc(CNCCCn3ccnc3C)c(-c3ccc(F)cc3)n2)cc1`, 17.6 µM; in that of `O=C(CCl)Nc1ccc(-c2ccccc2)cc1`, 21.9 µM.
In the case of `Cc1ccc(Oc2c(C(N)=O)cc([N+](=O)[O-])cc2[N+](=O)[O-])cc1` it was 21.8 µM; in that of `CN(C)c1ccc(C2=NOC(CN3C(=O)c4ccccc4S3(=O)=O)C2)cc1` (configuration not stated), below 0.015 µM; in that of `CCc1cc[n+](C2=C([O-])c3ccccc3C(=O)/C2=N\S(=O)(=O)c2cccs2)cc1`, 5.72 µM.
In the case of `CCN1/C(=C/c2cc[n+](C)cc2)C=Cc2cc(C)ccc21` it was 25.7 µM.
In the case of `COc1ccc(C(CCNC(C)c2ccccc2)c2ccc(F)cc2)cc1` (configuration not stated), the concentration at half-maximal activity (AC50) was 17.6 µM.
In the case of `Cc1[nH]nc2nc(SCC(=O)NCCC3=CCCCC3)n(-c3ccc(Br)cc3)c(=N)c12` it was 21.5 µM; in that of `O=C1Nc2ccc(Br)cc2/C1=C/C(=O)c1ccc2c(c1)OCO2`, 32.6 µM.
